Measured values from US11485987B2, “Methods for inducing bioorthogonal reactivity” (University of Delaware, priority 2015, dated 2022).

Molecular target: T1, F41A APEX2 (Glycine max, UniProt Q43758, A134P/E112K/K14D/W41A)
T1 sequence (Q43758 1-250 A134P/E112K/K14D/W41A): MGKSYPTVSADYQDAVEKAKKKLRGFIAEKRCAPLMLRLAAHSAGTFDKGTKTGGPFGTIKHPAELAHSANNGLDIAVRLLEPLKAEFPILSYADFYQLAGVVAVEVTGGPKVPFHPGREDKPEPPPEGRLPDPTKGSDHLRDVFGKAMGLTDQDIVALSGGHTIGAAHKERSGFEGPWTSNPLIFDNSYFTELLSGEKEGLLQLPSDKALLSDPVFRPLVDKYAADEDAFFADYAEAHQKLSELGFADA
Assay: Oxidation of DHT by F41A APEX2, UV-Vis initial rates and kinetic parameters
Format: biochemical
Details: for Initial rate of oxidation of DHT by F41A APEX2 + SOD: SOD 1 μM, PBS, 100 μM EDTA, first 100 s
Method: UV-Vis and fluorescence measurements were conducted in quartz cuvettes. All reactions were conducted in phosphate buffered saline (PBS) containing 100 μM EDTA with a pH=7.4. The PBS was prepared by adding 25 mM phosphate salts (Na2HPO4 and NaH2PO4), 100 mM NaCl, 100 μM EDTA to DI water. EDTA was added to quench free metals that can oxidize DHT. The buffer was pH adjusted to 7.4 using 1 mM HCl and 1 mM NaOH. UV experiments were stirred at 25° C. in a temperature-controlled cuvette holder of the spectrophotometer. Solutions of 15 or 16 were prepared from methanol stock solutions.
SOD (1 μM) was added to PBS containing 100 μM EDTA. 15 or 16 (60 μM) was added from methanol stock solutions. After 10s, APEX2 (SEQ ID NO:1) or F41A APEX2 (275 nM) was dosed in and oxidation was monitored at 325 nm for 15 and 285 nm for 16 at 60s intervals.
The initial rate of oxidation was calculated from the first 100 seconds after APEX2 (SEQ ID NO:1) or F41A APEX2 was added ([…]). In the assays where SOD was added, SOD (1 μM) was added to PBS containing 100 μM EDTA and 15 or 16 was dosed in. 10 seconds later, APEX2 (SEQ ID NO:1) or F41A APEX2 ([…]) was added and the rate of oxidation was calculated from the first 100 seconds after APEX2 (SEQ ID NO:1) or F41A APEX2 ([…]) addition. The initial rate of oxidation was adjusted to background oxidation of DHT in PBS with 100 μM EDTA. Kinetic parameters (Table 2) were determined using GraphPad's Prism 6 software from the data presented below (Table 3-4).

## O=C(O)CCCC(=O)Nc1ccc(C2=NNC(c3ccccn3)=NN2)nc1 [compound 15]
DHT 5 μM
  Initial rate of oxidation of DHT by F41A APEX2 + SOD: 1.080 +/− 0.113 ×10^−8 M/s
DHT 10 μM
  Initial rate of oxidation of DHT by F41A APEX2 + SOD: 2.625 +/− 0.177 ×10^−8 M/s
DHT 15 μM
  Initial rate of oxidation of DHT by F41A APEX2 + SOD: 2.549 +/− 0.145 ×10^−8 M/s
DHT 20 μM
  Initial rate of oxidation of DHT by F41A APEX2 + SOD: 3.629 +/− 0.413 ×10^−8 M/s
DHT 25 μM
  Initial rate of oxidation of DHT by F41A APEX2 + SOD: 3.863 +/− 0.163 ×10^−8 M/s
DHT 30 μM
  Initial rate of oxidation of DHT by F41A APEX2 + SOD: 5.019 +/− 0.089 ×10^−8 M/s
DHT 40 μM
  Initial rate of oxidation of DHT by F41A APEX2 + SOD: 5.758 +/− 0.855 ×10^−8 M/s
DHT 50 μM
  Initial rate of oxidation of DHT by F41A APEX2 + SOD: 5.978 +/− 0.304 ×10^−8 M/s
DHT 60 μM
  Initial rate of oxidation of DHT by F41A APEX2 + SOD: 7.688 +/− 0.698 ×10^−8 M/s
DHT 70 μM
  Initial rate of oxidation of DHT by F41A APEX2 + SOD: 7.685 +/− 0.869 ×10^−8 M/s
DHT 75 μM
  Initial rate of oxidation of DHT by F41A APEX2 + SOD: 10.059 +/− 0.594 ×10^−8 M/s
DHT 85 μM
  Initial rate of oxidation of DHT by F41A APEX2 + SOD: 12.425 +/− 0.046 ×10^−8 M/s
F41A APEX2 mutant with SOD
  factor of increase of rate of catalysis versus APEX2 (SEQ ID NO:1): 7
